26 compounds from patent US6127360A, “Diamine derivatives and pharmaceutical containing the same” (Kowa Co., Ltd., priority 1997, dated 2000) can be followed below.

One experiment has as its target T1, LTD4 receptor (Cavia porcellus, UniProt Q2NNR5).
T1 construct: guinea pig pulm-omembranous protein and a test compound; from tissue; host or cells: guinea pig lung membranes
T1 sequence (Q2NNR5 1-340): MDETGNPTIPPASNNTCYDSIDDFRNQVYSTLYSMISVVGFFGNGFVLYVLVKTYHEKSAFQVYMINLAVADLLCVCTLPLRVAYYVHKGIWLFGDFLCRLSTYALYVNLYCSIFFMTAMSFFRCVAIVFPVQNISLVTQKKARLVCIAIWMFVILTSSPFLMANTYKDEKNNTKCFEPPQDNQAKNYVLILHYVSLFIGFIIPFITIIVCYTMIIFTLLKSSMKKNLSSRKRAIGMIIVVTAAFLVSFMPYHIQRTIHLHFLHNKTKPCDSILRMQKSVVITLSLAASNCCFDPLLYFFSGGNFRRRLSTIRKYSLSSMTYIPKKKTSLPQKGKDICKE
The experiment in a line: LTD4 Receptor Binding Inhibition Test ([3H]LTD4, guinea pig pulmomembranous protein). As to conditions: read-out: LTD4 receptor dissociation constant (KD). How it is done:
LTD4 Receptor Binding Inhibition Test
An ice-cold tris hydrochloride/sodium chloride buffer (10 mM/100 mM, pH 7.5) was added to terminate the reaction, followed by immediate filtration through a Wattman CF/C filter. The filter was washed twice with 20 ml aliquots of the ice-cold buffer. The radioactivity of the residue was measured by a liquid scintillation counter.
In a binding assay, […] LTD4 was used for the measurement of a nonspecific binding.

The target of the next experiment is T2, H1 receptor (Cavia porcellus, UniProt P31389).
T2 construct: guinea pig cerebromembranous protein and a test compound; from tissue; host or cells: guinea pig brain membranes
T2 sequence (P31389 whole entry): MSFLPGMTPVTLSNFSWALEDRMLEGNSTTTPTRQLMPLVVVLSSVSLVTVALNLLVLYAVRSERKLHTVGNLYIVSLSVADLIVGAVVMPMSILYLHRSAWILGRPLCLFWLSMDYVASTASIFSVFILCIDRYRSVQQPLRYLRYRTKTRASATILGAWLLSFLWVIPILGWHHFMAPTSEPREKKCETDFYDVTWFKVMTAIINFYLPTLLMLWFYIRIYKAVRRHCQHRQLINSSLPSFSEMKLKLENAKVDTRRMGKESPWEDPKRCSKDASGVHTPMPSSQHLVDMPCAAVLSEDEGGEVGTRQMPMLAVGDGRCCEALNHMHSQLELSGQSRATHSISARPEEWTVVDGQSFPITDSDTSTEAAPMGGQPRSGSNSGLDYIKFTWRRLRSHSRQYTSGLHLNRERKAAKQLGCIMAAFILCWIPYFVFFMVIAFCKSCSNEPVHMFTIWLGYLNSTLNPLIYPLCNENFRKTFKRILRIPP
As to the kind of experiment: H1 Receptor Binding Inhibition Test ([3H]mepyramin, guinea pig cerebromembranous protein). As to conditions: read-out: H1 receptor dissociation constant (KD). On the procedure:
H1 Receptor Binding Inhibition Test
An ice-cold phosphate buffer was added to terminate the reaction, followed by immediate filtration through a Wattman CF/C filter. The filter was washed twice with 20 ml aliquots of the ice-cold buffer. The radio-activity of the residue was measured by a liquid scintillation counter. From a measurement value obtained without the addition of the test compound and measurements values obtained upon addition of the test compound at various concentrations, the dose-response of the inhibitory action of the test compound was measured and the 50% inhibitory concentration (IC50) was determined. Using the Cheng-Prusoff formula, a dissociation constant (KD) was calculated from the 50% inhibitory concentration (IC50).
In a binding assay, 10^4 M R(-)dimethindene was used for the measurement of a nonspecific binding.

For experiment [1], the target named is T3, isolated guinea pig ileum (Cavia porcellus, UniProt Q2NNR5).
T3 construct: An isolated guinea pig ileum was cut into about 2 cm lengths; from tissue; host or cells: guinea pig ileum
T3 sequence (Q2NNR5 1-340): T1 sequence (Q2NNR5 1-340)
As to the kind of experiment: Anti-LTD4 action on isolated guinea pig ileum (LTD4 contraction). The experiment is classed as cell-based. As to conditions: 10^-5 M test compound; contraction caused by 10^-8 M LTD4; read-out: Anti-LTD4 action (inhibition rate). How it is done: Antihistaminic Action and Anti-LTD4 Action (In vitro Tests)
An isolated guinea pig ileum was cut into about 2 cm lengths. Each ileum piece was suspended in a 20-ml container filled with the Tyrode's buffer. An isotonic contractive response by histamine or LTD4 was recorded on a recorder. The Tyrode's buffer was controlled at 30° C., through which a mixed gas (95%O2 -5%CO2) was bubbled.

Where a name gives a salt, the structure may show the parent alone.

As to `O=c1ccc2ccc(OCCCN3CCN(Cc4ccc5ccccc5n4)CC3)cc2[nH]1` [Example 36, 7-{3-[4-(2-Quinolylmethyl)-1-piperazinyl]propoxy}-1,2-dihydroquinolin-2-one], the Ki came to 1.99 µM on LTD4 receptor and 0.00349 nM at H1 receptor. In experiment [1], the inhibition at 10 µM was determined as 46%.
As to `O=c1ccc2ccc(OCCN3CCN(Cc4ccc5ccccc5n4)CC3)cc2[nH]1` [Example 39, 7-{2-[4-(2-Quinolylmethyl)-1-piperazinyl]ethoxy}-1,2-dihydroquinolin-2-one], the inhibition at 10 µM in experiment [1] was 30%.
As to `CC1(C)C(=O)Nc2ccc(OCCN3CCN(Cc4ccc5ccccc5n4)CC3)cc21` [Example 1, 3,3-dimethyl-5-{2-[4-(2-quinolylmethyl)-1-piperazinyl]ethoxy}-2,3-dihydro-1H-indol-2-one], the figures for the Ki at LTD4 receptor and on H1 receptor were 3.24 µM and 173 nM, respectively. Besides, the inhibition at 10 µM in experiment [1] came to 16%.
On to `CC1(C)C(=O)Nc2c(OCCCN3CCCN(Cc4ccc5ccccc5n4)CC3)cccc21` [Example 69, 3,3-Dimethyl-7-{3-[4-(2-quinolylmethyl)-1-homopiperazinyl]propoxy}-2,3-dihydro-1H-indol-2-one], for which, in experiment [1], the inhibition at 10 µM is 25%.
For `O=C1CCc2cccc(OCCCN3CCN(Cc4ccc5ccccc5n4)CC3)c2N1` [Example 45, 8-{3-[4-(2-Quinolylmethyl)-1-piperazinyl]propoxy)-1,2,3,4-tetrahydroquinolin-2-one], the values for the Ki on LTD4 receptor and on H1 receptor were 1.98 µM and 3.39 nM, respectively.
With `O=C1CCc2cccc(OCCCN3CCCN(Cc4ccc5ccccc5n4)CC3)c2N1` [Example 88, 8-{3-[4-(2-Quinolylmethyl)-1-homopiperazinyl]propoxy}-1,2,3,4-tetrahydroquinolin-2-one], the inhibition at 10 µM in experiment [1] came to 12%.
For the compound `Cc1ccc(OCCCN2CCN(Cc3nc4ccccc4n3C)CC2)c2c1NC(=O)C2(C)C` [Example 26, 3,3,7-Trimethyl-4-{3-[4-(N-methylbenzoimidazol-2-ylmethyl)-1-piperazinyl]propoxy}-2,3-dihydro-1H-indol-2-one], the results for the Ki on LTD4 receptor and on H1 receptor were 3.34 µM and 36.3 nM, respectively. For the same compound, the inhibition at 10 µM in experiment [1] was determined as 27%.
With `O=C1CSc2cc(OCCCN3CCN(C(=O)c4ccc5ccccc5n4)CC3)ccc2N1` [Example 102, 7-{3-[4-(2-quinolylcarbonyl)piperazinyl]propoxy}-3,4-dihydro-2H-1,4-benzothiazin-3-one maleate], the inhibition at 10 µM in experiment [1] was 10%.
For the compound `CC1(C)C(=O)Nc2ccc(OCCN3CCCN(Cc4ccc5ccccc5n4)CC3)cc21` [Example 50, 3,3-dimethyl-5-{2-[4-(2-quinolylmethyl)-1-homopiperazinyl]ethoxy}-2,3-dihydro-1H-indol-2-one dimaleate], the Ki at LTD4 receptor worked out at 8.6 µM; on H1 receptor it was 457 nM.
Turning to `CC1(C)C(=O)Nc2c(OCCCN3CCN(Cc4ccc5ccccc5n4)CC3)cccc21` [Example 29, 3,3-Dimethyl-7-{3-[4-(2-quinolylmethyl)-1-piperazinyl]propoxy}-2,3-dihydro-1H-indol-2-one], the inhibition at 10 µM in experiment [1] stood at 48%.
Take `Cn1c(CN2CCCN(CCOc3ccc4ccc(=O)[nH]c4c3)CC2)nc2ccccc21` [Example 80, 7-{2-[4-(N-Methylbenzoimidazol-2-ylmethyl)-1-homopiperazinyl]ethoxy)-1,2-dihydroquinolin-2-one]: the Ki on LTD4 receptor stood at 18.4 µM; at H1 receptor, 4.31 nM. Also, the inhibition at 10 µM in experiment [1] was 11%.
Consider `CCOCCn1c(CN2CCCN(CCCOc3ccc4c(c3)SCC(=O)N4)CC2)nc2ccccc21` [Example 83, 7-{3-[4-(N-Ethoxyethylbenzoimidazol-2-ylmethyl)-1-homopiperazinyl]-propoxy}-3,4-dihydro-2H-1,4-benzothiazin-3-one], for which, in experiment [1], the inhibition at 10 µM stood at 26%.
For the compound `Cc1ccc(OCCCCCN2CCN(Cc3ccc4ccccc4n3)CC2)c2c1NC(=O)C2(C)C` [Example 9, 3,3,7-Trimethyl-4-{5-[4-(2-quinolylmethyl)-1-piperazinyl]pentyloxy}-2,3-dihydro-1H-indol-2-one], the results for the Ki on LTD4 receptor and on H1 receptor were 49.6 µM and 13.5 nM, respectively. Further, in experiment [1], the inhibition at 10 µM turned out to be 40%.
For the compound `O=C1CCc2ccc(OCCN3CCCN(Cc4ccc5ccccc5n4)CC3)cc2N1` [Example 81, 7-{2-[4-(2-Quinolylmethyl)-1-homopiperazinyl]ethoxy}-1,2,3,4-tetrahydroquinolin-2-one], in experiment [1], the inhibition at 10 µM came out at 19%.
With `Cc1ccc(OCCCN2CCCN(Cc3ccc4ccccc4n3)CC2)c2c1NC(=O)CC2` [Example 60, 8-Methyl-5-{3-[4-(2-quinolylmethyl)-1-homopiperazinyl]propoxy}-1,2,3,4-tetrahydroquinolin-2-one], the Ki on LTD4 receptor amounted to 8.73 µM; on H1 receptor it was 5.45 nM.
On the same counts, the results for `Cc1ccc(OCCN2CCCN(Cc3ccc4ccccc4n3)CC2)c2c1NC(=O)C2(C)C` [Example 54, 3,3,7-Trimethyl-4-{2-[4-(2-quinolylmethyl)-1-homopiperazinyl]ethoxy}-2,3-dihydro-1H-indol-2-one] are 881 µM and 0.249 nM.
On the same counts, the results for `CC1(C)C(=O)Nc2cccc(OCCCN3CCN(Cc4ccc5ccccc5n4)CC3)c21` [Example 41, 3,3-Dimethyl-4-{3-[4-(2-quinolylmethyl)-1-piperazinyl]propoxy}-2,3-dihydro-1H-indol-2-one] are 3.83 µM and 4.32 nM.
For the compound `Cn1c(CN2CCCN(CCOc3ccc4c(c3)CCC(=O)N4)CC2)nc2ccccc21` [Example 75, 6-{2-[4-(N-Methylbenzoimidazol-2-ylmethyl)-1-homopiperazinyl]ethoxy}-1,2,3,4-tetrahydroquinolin-2-one], the values for the Ki on LTD4 receptor and on H1 receptor were 7.34 µM and 55.8 nM, respectively.
As for `O=C1CCc2cccc(OCCCCN3CCN(Cc4ccc5ccccc5n4)CC3)c2N1` [Example 44, 8-{4-[4-(2-Quinolylmethyl)-1-piperazinyl]butoxy}-1,2,3,4-tetrahydroquinolin-2-one], the inhibition at 10 µM in experiment [1] worked out at 47%.
For `O=C1CCc2cccc(OCCCCN3CCCN(Cc4ccc5ccccc5n4)CC3)c2N1` [Example 89, 8-{4-[4-(2-Quinolylmethyl)-1-homopiperazinyl]butoxy}-1,2,3,4-tetrahydroquinolin-2-one], in experiment [1], the inhibition at 10 µM was found to be 21%.
As for `Cc1ccc(OCCN2CCN(Cc3ccc4ccccc4n3)CC2)c2c1NC(=O)C2(C)C` [Example 93, 3,3,7-Trimethyl-4-{2-[4-(2-quinolylmethyl)-1-piperazinyl]ethoxy}-2,3-dihydro-1H-indol-2-one], the Ki at LTD4 receptor was 5.9 µM; on H1 receptor, 71 nM.
On the same counts, the results for `Cc1ccc(OCCCN2CCCN(Cc3ccc4ccccc4n3)CC2)c2c1NC(=O)C2(C)C` [Example 97, 3,3,7-Trimethyl-4-{3-[4-(2-quinolylmethyl)-1-homopiperazinyl]propoxy}-2,3-dihydro-1H-indol-2-one] are 15.9 µM and 187 nM.
The like results for `Cn1c(CN2CCCN(CCOc3ccc4[nH]c(=O)ccc4c3)CC2)nc2ccccc21` [Example 77, 6-{2-[4-(N-Methylbenzoimidazol-2-ylmethyl)-1-homopiperazinyl]ethoxy}-1,2-dihydroquinolin-2-one] were, in that order, 110 µM and 74.5 nM.
With `CC1(C)C(=O)Nc2cc(OCCCCCN3CCN(Cc4ccc5ccccc5n4)CC3)ccc21` [Example 42, 3,3-Dimethyl-6-{5-[4-(2-quinolylmethyl)-1-piperazinyl]pentyloxy}-2,3-dihydro-1H-indol-2-one], in experiment [1], the inhibition at 10 µM was 13%.
Take `CC1(C)C(=O)Nc2cccc(OCCCN3CCCN(Cc4ccc5ccccc5n4)CC3)c21` [Example 85, 3,3-Dimethyl-4-{3-[4-(2-quinolylmethyl)-1-homopiperazinyl]propoxy}-2,3-dihydro-1H-indol-2-one]: the Ki on LTD4 receptor was determined as 35.7 µM; on H1 receptor, 18.3 nM. In experiment [1], the inhibition at 10 µM stood at 21%.
In the case of `O=C1CCc2ccc(OCCN3CCN(Cc4ccc5ccccc5n4)CC3)cc2N1` [Example 32, 7-{2-[4-(2-Quinolylmethyl)-1-piperazinyl]ethoxy}-1,2,3,4-tetrahydroquinolin-2-one], the inhibition at 10 µM in experiment [1] was found to be 20%.
